Data reported in US20240308968A1, “FUNGICIDAL SUBSTITUTED HETEROCYCLES” (FMC Corporation, priority 2021, published 2024).

Assays:
Format in all cases: in vivo
Conditions in all cases: 100 = 100% disease control, 0 = no control
Alternaria solani = test: Test F: preventive spray on tomato seedlings, tomato early blight disease rating
How it was run: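 Preventive test: a day after run-off spraying with acetone/water–PEG400 suspensions (ppm), seedlings received an A. solani spore inoculum. Incubation was 48 h at 27 °C in saturated air followed by 3 days in a 20 °C chamber. Visual scores express percent disease control versus untreated plants (0–100).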

Botrytis cinerea = test: Test E: preventive spray on tomato seedlings, tomato Botrytis disease rating
How it was run: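 Preventive test: one day after spraying seedlings to run-off with test suspension (ppm in acetone/water, 50–250 ppm PEG400), B. cinerea spores applied. Incubation 48 h at 20 °C saturated humidity plus 3 days at 24 °C preceded visual rating as percent disease control versus controls.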

Phakopsora pachyrhizi = test: Test D: preventive spray on soybean seedlings, Asian soybean rust disease rating
How it was run: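 Seedlings of soybean were challenged with rust spores one day after a run-off spray of test suspension (acetone/water 50/50, 50–250 ppm PEG400); after 24 h saturated humidity and 8 days growth, both at 22° C, disease was scored visually.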

Zymoseptoria tritici = test: Test A: preventive spray on wheat seedlings, wheat leaf blotch disease rating
How it was run: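 Disease scored after 17 days in a 20 °C growth chamber, following 48 h at 24 °C in saturated air after spore inoculation with Z. tritici. Inoculation came one day after wheat seedlings were sprayed to run-off with test suspension (acetone/water 50/50, 50–250 ppm PEG400).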

[1] = system: Puccinia recondita f. sp. Tritici; test: Test B: preventive spray on wheat seedlings, wheat leaf rust disease rating
How it was run: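 Preventive test: one day after spraying wheat seedlings to run-off with ppm suspensions (acetone/water 1:1, 50-250 ppm PEG400), leaf rust spores were applied. Incubation was 24 h at saturation then 7 days at 20° C.; disease scored 0-100% control relative to untreated.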

[2] = system: Blumeria graminis f. sp. Tritici; test: Test C: preventive spray on wheat seedlings, wheat powdery mildew disease rating
How it was run: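 Disease control scored visually after 8 days at 20° C, on a 0–100 scale versus untreated controls. Seedlings had received a preventive run-off spray one day before dusting with powdery mildew spores; compounds were suspended in acetone/water (50/50) containing 50–250 ppm PEG400.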

[3] = Alternaria solani, 120 h, 50 ppm
[4] = Botrytis cinerea, 120 h, 50 ppm
[5] = Phakopsora pachyrhizi, 216 h, 50 ppm
[6] = Zymoseptoria tritici, 456 h, 50 ppm
[7] = Puccinia recondita, 192 h, 50 ppm
[8] = Blumeria graminis, 192 h, 50 ppm

| Structure (SMILES) | Test F disease control rating (Alternaria solani; 50 ppm) | Test E disease control rating (Botrytis cinerea; 50 ppm) | Test D disease control rating (Phakopsora pachyrhizi; 50 ppm) | Test A disease control rating (Zymoseptoria tritici; 50 ppm) | Test B disease control rating ([1]; 50 ppm) | Test C disease control rating ([2]; 50 ppm) | further results |
| --- | --- | --- | --- | --- | --- | --- | --- |
| COc1cc(OC)cc(-c2c(-c3c(F)cc(F)cc3F)noc(=O)c2C)c1 [Compound 60] | 62% | 87% | 75% | 82% | 99% | 96% | – |
| Cn1nc(-c2ccoc2)c(-c2c(F)cccc2F)cc1=O [Compound 3] | – | – | – | – | – | – | Test F disease control rating (Alternaria solani; 250 ppm): 0%; Test E disease control rating (Botrytis cinerea; 250 ppm): 0%; Test D disease control rating (Phakopsora pachyrhizi; 250 ppm): 38%; Test A disease control rating (Zymoseptoria tritici; 250 ppm): 0%; Test B disease control rating ([1]; 250 ppm): 0%; Test C disease control rating ([2]; 250 ppm): 0% |
| COc1cc(OC)c(Cl)c(-c2nc(Cl)nc(C)c2-c2c(F)cccc2F)c1 [Compound 48, 2-chloro-4-(2-chloro-3,5-dimethoxyphenyl)-5-(2,6-difluorophenyl)-6-methylpyrimidine] | – | – | – | – | – | – | pest or weed control at 250 ppm (Alternaria solani; Alternaria solani, 120 h, 250 ppm): 100%; pest or weed control at 250 ppm (Botrytis cinerea; Botrytis cinerea, 120 h, 250 ppm): 99%; pest or weed control at 250 ppm (Phakopsora pachyrhizi; Phakopsora pachyrhizi, 216 h, 250 ppm): 100%; pest or weed control at 250 ppm (Zymoseptoria tritici; Zymoseptoria tritici, 456 h, 250 ppm): 100%; pest or weed control at 250 ppm ([1]; Puccinia recondita, 192 h, 250 ppm): 100%; pest or weed control at 250 ppm ([2]; Blumeria graminis, 192 h, 250 ppm): 100% |
| CCOC(=O)c1nn(-c2cc(OC)cc(OC)c2Cl)c(-c2ccc(F)cc2Cl)c(C)c1=O [Compound 98] | – | – | – | – | – | – | Test F disease control rating (Alternaria solani; 250 ppm): 0%; Test E disease control rating (Botrytis cinerea; 250 ppm): 96%; Test D disease control rating (Phakopsora pachyrhizi; 250 ppm): 94%; Test A disease control rating (Zymoseptoria tritici; 250 ppm): 0%; Test B disease control rating ([1]; 250 ppm): 98%; Test C disease control rating ([2]; 250 ppm): 0% |
| COc1cc(OC)c(Br)c(-c2nc(C)nc(C)c2-c2ccc(F)cc2Cl)c1 [Compound 59, 4-(2-bromo-3,5-dimethoxyphenyl)-2,6-dimethyl-5-(2-chloro-4-fluorophenyl)pyrimidine] | – | – | – | – | – | – | pest or weed control at 50 ppm (Alternaria solani; [3]): 98%; pest or weed control at 50 ppm (Botrytis cinerea; [4]): 88%; pest or weed control at 50 ppm (Phakopsora pachyrhizi; [5]): 100%; pest or weed control at 50 ppm (Zymoseptoria tritici; [6]): 100%; pest or weed control at 50 ppm [1, 7]: 100%; pest or weed control at 50 ppm [2, 8]: 100% |
| COc1cc(OC)cc(-c2nc(C)nc(Cl)c2-c2ccc(F)cc2Cl)c1 [Compound 52] | – | – | – | – | – | – | Test F disease control rating (Alternaria solani; 250 ppm): 26%; Test E disease control rating (Botrytis cinerea; 250 ppm): 94%; Test D disease control rating (Phakopsora pachyrhizi; 250 ppm): 13%; Test A disease control rating (Zymoseptoria tritici; 250 ppm): 100%; Test B disease control rating ([1]; 250 ppm): 89%; Test C disease control rating ([2]; 250 ppm): 99% |
| COc1cc(OC)c(Cl)c(-n2nc(N)c(=O)c(C)c2-c2ccc(F)cc2Cl)c1 [Compound 87] | 99% | 96% | 100% | 100% | 98% | 96% | – |
| CCOC(=O)c1nn(-c2cc(OC)cc(OC)c2)c(-c2ccc(F)cc2)c(C(=O)OCC)c1=O [Compound 125] | 0% | 0% | 0% | 3% | 28% | 0% | – |
| Cc1c(-c2nn(C)c(=O)c(C)c2-c2ccc(F)cc2Cl)csc1Br [Compound 15] | 99% | 92% | 24% | 100% | 100% | 99% | – |
| COc1ccc(Cl)c(-n2nc(Br)c(=O)c(Br)c2-c2ccc(F)cc2Cl)c1 [Compound 102] | 88% | 99% | 99% | 97% | 99% | 0% | – |
| COc1cc(OC)cc(-c2ncncc2-c2c(F)cc(F)cc2F)c1 [Compound 40] | – | – | – | – | – | – | Test F disease control rating (Alternaria solani; 250 ppm): 0%; Test E disease control rating (Botrytis cinerea; 250 ppm): 0%; Test D disease control rating (Phakopsora pachyrhizi; 250 ppm): 0%; Test A disease control rating (Zymoseptoria tritici; 250 ppm): 0%; Test B disease control rating ([1]; 250 ppm): 9%; Test C disease control rating ([2]; 250 ppm): 69% |
| COc1ccc(Cl)c(-n2nc(Cl)c(=O)c(Cl)c2-c2ccc(F)cc2Cl)c1 [Compound 103] | 99% | 100% | 100% | 100% | 100% | 97% | – |
| Cc1c(-c2ccc(F)cc2Cl)c(-c2ccsc2)nn(C)c1=O [Compound 5] | 91% | 93% | 21% | 100% | 74% | 96% | – |
| CCOC(=O)c1nn(-c2cc(OC)ccc2Cl)c(-c2ccc(F)cc2)c(C(=O)OCC)c1=O [Compound 82] | 0% | 0% | 0% | 3% | 28% | 0% | – |
| Cc1c(-c2ccc(F)cc2Cl)c(-c2ccn(C)n2)nn(C)c1=O [Compound 20] | 0% | 33% | 0% | 0% | 19% | 72% | – |
| COc1ccc(-c2c(Cl)c(=O)c(C)nn2-c2cc(OC)ccc2Cl)c(Cl)c1 [Compound 129] | 100% | 98% | 99% | 100% | 100% | 99% | – |
| Cc1c(-c2ccc(F)cc2Cl)c(-c2sc(Br)cc2Br)nn(C)c1=O [Compound 16] | 0% | 37% | 0% | 99% | 68% | 64% | – |
| COc1cc(OC)c(Br)c(-c2c(-c3ccc(F)cc3F)noc(=O)c2C)c1 [Compound 63] | 0% | 97% | 0% | 100% | 100% | 56% | – |
| COc1ccc(Cl)c(-n2nc(OC)c(=O)cc2-c2ccc(F)cc2Cl)c1 [Compound 118] | 0% | 97% | 0% | 80% | 99% | 56% | – |
| COc1cc(OC)cc(-n2nc(CO)c(=O)c(C)c2-c2ccc(F)cc2Cl)c1 [Compound 91] | – | – | – | – | – | – | Test F disease control rating (Alternaria solani; 250 ppm): 17%; Test E disease control rating (Botrytis cinerea; 250 ppm): 79%; Test D disease control rating (Phakopsora pachyrhizi; 250 ppm): 75%; Test A disease control rating (Zymoseptoria tritici; 250 ppm): 0%; Test B disease control rating ([1]; 250 ppm): 99%; Test C disease control rating ([2]; 250 ppm): 0% |
| Cc1c(-c2ccc(F)cc2Cl)c(-c2ccc(Cl)s2)nn(C)c1=O [Compound 10] | 16% | 96% | 12% | 100% | 68% | 96% | – |
| COc1cc(OC)c(Cl)c(-n2nc(C)c(=O)c(C)c2-c2ccc(F)cc2Cl)c1 [Compound 84] | 100% | 94% | 100% | 100% | 100% | 99% | – |
| COc1cc(-n2nc(CO)c(=O)c(C)c2-c2ccc(F)cc2F)cc(OC)c1Cl [Compound 32, 1-(4-chloro-3,5-dimethoxyphenyl)-6-(2,4-difluorophenyl)-3-(hydroxymethyl)-5-methyl-4(1H)-pyridazinone] | – | – | – | – | – | – | pest or weed control at 50 ppm (Alternaria solani; [3]): 0%; pest or weed control at 50 ppm (Botrytis cinerea; [4]): 0%; pest or weed control at 50 ppm (Phakopsora pachyrhizi; [5]): 25%; pest or weed control at 50 ppm (Zymoseptoria tritici; [6]): 0%; pest or weed control at 50 ppm [1, 7]: 0%; pest or weed control at 50 ppm [2, 8]: 0% |
